Values of other authors in US20080233219A1, “Composition for diet comprising plant essential oil as active ingredient, sheet type composition for diet comprising thereof, percutaneous pharmaceutical agent for diet comprising thereof, and method for producing thereof” (NATURE TECHNOLOGY INC., priority 2005, published 2008).

Columns and labels:
[1] = in three month
[2] = in vivo

SMILES: OC1(c2ccc(Cl)cc2)c2ccccc2C2=NCCN21 (centres unmarked) [Mazindol]
- gradual weight loss, average [1]: about 4.5 kg
- side effects [2]: not serious ones except cotton mouth, astriction, indigestible feeling
